The values below are quoted from earlier work in patent US20200352795A1, “WETNESS INDICATOR WITH HARDENERS” (SAVARE' I.C. S.r.l., priority 2018, published 2020).

One may read the pKa as the negative logarithm of the acid dissociation constant.

The conditions of the data set: for pKa: Table 1.

With `O=C1OC2(c3cc(Br)c(O)c(Br)c3Oc3c2cc(Br)c(O)c3Br)c2c(Cl)c(Cl)c(Cl)c(Cl)c21` [Acid Phloxine B], the “pKa of pH-indicator colorant” value is on record as ~2.9 and the pKa is recorded as 2.9. With `O=S(=O)(O)c1ccc(N=C2C=CC(=C(c3ccc(Nc4ccc(S(=O)(=O)O)cc4)cc3)c3ccc(Nc4ccc(S(=O)(=O)O)cc4)cc3)C=C2)cc1` [Aniline Blue (also known as Methyl Blue), Aniline Blue], the pKa is 11.7.

Regarding `Cc1c(C2(c3cc(Br)c(O)c(Br)c3C)OS(=O)(=O)c3ccccc32)cc(Br)c(O)c1Br` [Bromocresol Green Free Acid], the pKa is on record as 4.8. For the compound `Cc1cc(C2(c3cc(C)c(O)c(Br)c3)OS(=O)(=O)c3ccccc32)cc(Br)c1O` [Bromocresol Purple Free Acid], the “pKa of pH-indicator colorant” value is reported as 6.3. With `O=S1(=O)OC(c2cc(Br)c(O)c(Br)c2)(c2cc(Br)c(O)c(Br)c2)c2ccccc21` [Bromophenol Blue Free Acid], the “pKa of pH-indicator colorant” value was ~4.0.
